Results published in US20250270648A1, “MOLECULAR SIGNATURE FOR ASSESSING THE RESPONSIVENESS OF CANCER TO MITOCHONDRIA-TARGETED ANTIOXIDANTS” (UNIVERSITÉ CATHOLIQUE DE LOUVAIN, priority 2021, published 2025).

Columns and labels:
[1] = test system: SkBr3 human breast cancer cells; test: Mitochondrial potential, JC-10; type: cell-based; conditions: indicated doses of MitoQ, 48 h
Method: (§1) The mitochondrial potential (ΔΨ) was measured using JC-10 Mitochondrial Membrane Potential Assay Kit (Abcam®, #ab112134), according to manufacturer's recommendations. Briefly, MDA-MB-231 (10^4 cells/well), SkBr3 (10^4 cells/well), MDA-MB-436 (10^4 cells/well) or MCF10A (10^5 cells/well) cells were seeded in 96-well plates and treated for 48 h±MitoQ. Cells were then washed twice and incubated with JC-10 (1× solution) for 45 min. Fluorescence intensities were measured at 490/525 nm and […] using a SpectraMax i3 spectrophotometer equipped with a MiniMax imaging cytometer (Molecular Devices®).

[2] = test system: MDA-MB-231 human breast cancer cells; test: Mitochondrial potential, JC-10; type: cell-based; conditions: 48 h
Method: as §1

SkBr3 cells [3] = test: Western blotting (AMPK, EMT proteins); type: cell-based, human; conditions: 48 h
Method: (§2) For western blotting (WB), whole-protein extracts from MDA-MB-231, SkBr3 and MDA-MB-436 cells were prepared using RIPA buffer (50 mM Tris pH 7.4, 150 mM NaCl, 1% Triton-X-100, 0.05% sodium deoxycholate, 1 mM EDTA, 0.1% SDS, protease inhibitor cocktail and PhosSTOP Phosphatase Inhibitor Cocktail (Roche®)), centrifuged at 10,000×g for 10 min, and quantified using the Bio-Rad® Protein Assay. Proteins (50 μg for MDA-MB-231 and 100 μg for SkBr3 and MDA-MB-436 cells) were loaded into each lane of a 10-12% polyacrylamide gel in the presence of SDS, and were allowed to separate at 120 V for 90 min. The transfer of proteins onto nitrocellulose membranes was performed using an iBlot 2 Dry Blotting System (Thermo Fisher Scientific®) with the 7 min P0 program. Membranes were then blocked using 5% (w/v) powdered milk for 1 h, and incubated overnight at 4° C. with a primary antibody (Table 4).
(§3) β-actin served as a loading control. Immunodetection was performed at room temperature for 1 h using as secondary antibodies a horseradish peroxidase-conjugated goat anti-rabbit (Jackson®, Cat #111-035-003) and goat anti-mouse (Jackson®, Cat #115-035-003) in PBS-Tween containing 5% (w/v) milk or BSA. Detection was performed with ECL reagent (Amersham®, Cat #RPN2209), and protein bands were visualized and captured using ECL imager 600 (Amersham®). They were analyzed using the Image J software (Java).

MDA-MB-231 cells [4] = test: Western blotting (AMPK, EMT proteins); type: cell-based, human; conditions: 48 h
Method: as §2, §3

MDA-MB-231 cells [5] = test: Intracellular ATP, CellTiter-Glo; type: cell-based, human; conditions: MitoQ 100 nM, 48 h
Method: Intracellular ATP levels were measured after 48 h of treatment ±MitoQ, using the CellTiter-Glo Luminescent Viability Assay (Promega®) on a Glomax 96 microplate luminometer (Promega®) following manufacturer's instructions. Results were normalized to cell number.

SkBr3 spheroids = test: Spheres / stem-like spheroids; type: cell-based, human
Method: (§4) Total mRNA from MDA-MB-231, SkBr3 and MDA-MB-436 cells treated ±MitoQ for 48 h was extracted using the NucleoSpin RNA Kit (Macherey-Nagel®). Total mRNA from primary tumors was extracted with Tri reagent (Molecular Research Center®, Cat #TR118). mRNAs were quantified by the Qubit BR dsRNA assay kit (Thermo Fisher Scientific®), and mRNA integrity was evaluated on an Agilent® 2100 Bioanalyzer with the RNA 6000 nano kit (Agilent®). It was reverse transcribed in complementary DNA using the High-Capacity cDNA Reverse Transcription Kit (Applied Biosystems®, cat #4368814) according to manufacturer's protocol. Complementary DNA (500 ng) was amplified by real time quantitative PCR (RT-qPCR) using the low ROX SYBR Master Mix dTTP Blue (Eurogentec®) and primers listed in Table 5 and Table 6 on a ViiA 7 Real-Time PCR System (Thermo Fisher Scientific®). Gene expression was normalized to β-actin gene expression.
(§5) 3D models were used to obtain an enriched population in stem cells. For that, 10^4 MDA-MB-231, SkBr3 or MDA-MB-436 cancer cells were grown in suspension using 10 cm dishes coated with Polyhema in stem-cell medium: DMEM/F-12 (Gibco®, cat #11320033) supplemented with 100 units/mL penicillin, 100 μg/mL streptomycin, 20 μL/mL B27 (Gibco®, cat #17504044), 20 ng/mL human recombinant epithelial growth factor (EGF) (Peprotech®, cat #AF-100-15), 10 ng/mL basic fibroblast growth factor (bFGF; Peprotech®, cat #100-18B) and 2.5 mg/mL insulin. When spheres reached around 100 μm in diameter, they were washed with PBS and dissociated with accutase (Stem Cell Technology®, cat #07920) in order to have single cells again. At the third passage, dissociated spheres were treated ±MitoQ for 96 h. Images were captured on Axiovert™ 40 CFL microscope equipped with a MRC camera. At the end of the treatment, living cells were collected for RNA extraction.
(§6) Stem like-spheroids were prepared by seeding 5,000 MDA-MB-231, SkBr3 or MDA-MB-436 dissociated spheres/well in ultra-Low attachment 96-well plates (Corning®, cat #7007) in stem cell medium supplemented as described above. After overnight formation, spheroids were treated ±MitoQ for 96 h. Spheroid growth was monitored using an Axio Observer live-cell phase contrast microscope (Zeiss®).

MDA-MB-231 spheroids = test: Spheres / stem-like spheroids; type: cell-based, human
Method: as §4, §5, §6

MDA-MB-436 cells = test: Western blotting (EMT proteins); type: cell-based, human; conditions: MitoQ 500 nM, 48 h
Method: as §2, §3

SkBr3 cells [6] = test: Clonogenic assay, adherent; type: cell-based, human; conditions: MitoQ 100 nM, 48 h
Method: (§7) For adherent assays, MDA-MB-231 and SKBR3 cells were pre-treated for 48 h±MitoQ, and seeded (1,000 to 2,000 cells/well) in 6-well plates. After colony formation (2 weeks), cells were fixed and stained with 0.5% crystal violet in a 10% ethanol solution, for 30 min. Colonies were washed with water and counted. Results are expressed as surviving fraction (SF), where […].

MDA-MB-231 cells [7] = test: Clonogenic assay, adherent; type: cell-based, human; conditions: MitoQ 100 nM, 48 h
Method: as §7

COC1=C(OC)C(=O)C(CCCCCCCCCC[P+](c2ccccc2)(c2ccccc2)c2ccccc2)=C(C)C1=O [MitoQ] was tested, and the “Δψ, dose dependence” value [1] was “dose-dependent decreases”, the “mitochondrial potential (Δψ)” value ([2]; MitoQ 100 nM) was “decreased” and the “Δψ, dose dependence” value ([2]; indicated doses of MitoQ) was “dose-dependent decreases”. For the same compound, the AMPK activation (SkBr3 cells [3]; MitoQ 100 nM) was “did not significantly activate”, the SNAIL protein expression (SkBr3 cells [3]; MitoQ 500 nM) was “decreased” and the “5′ AMP-activated protein kinase (AMPK), P-T172-AMPK/total AMPK” value (MDA-MB-231 cells [4]; MitoQ 100 nM) was “activation”. For the same compound, the “SNAIL, ZEB1, Twist1 and E-cadherin protein expression” value (MDA-MB-231 cells [4]; MitoQ 500 nM) was “decreased”, the ATP production (MDA-MB-231 cells [5]) was “overall decrease” and the “NANOG and SOX2 mRNA expression” value (SkBr3 spheroids) was “decreased”. The “spheroid formation and spheroid destabilization” value (SkBr3 spheroids) was “Neither inhibition of spheroid formation not spheroid destabilization was seen”, the “dose sufficient to destabilize already formed spheroids” value (MDA-MB-231 spheroids) was 100 nM and the “mRNA expression of stem cells markers POU5F1/(Oct4), NANOG and SOX2” value (MDA-MB-231 spheroids; MitoQ 250 nM) was “significant decrease”. For the same compound, the spheroid formation (MDA-MB-231 spheroids; MitoQ 250 nM) was “inhibited”, the “protein expression of Vimentin, SNAI1, SNAI2 (SLUG), ZEB1 and TWIST1” value (MDA-MB-436 cells) was “decrease” and the “clonogenicity in Petri dishes allowing adhesion” value (SkBr3 cells [6]) was “largely inhibited”. For the same compound, the “clonogenicity in Petri dishes allowing adhesion” value (MDA-MB-231 cells [7]) was “largely inhibited”.
